{"source": "patent US11331020B2", "about": "(TRUSTEES OF BOSTON UNIVERSITY, priority 2020, dated 2022)", "molecules": {"B1": {"name": "N462Y/W427Y: mutant NicA2 enzyme, SEQ ID NO: 4 (protein)", "chain": "MSDKTKTNEGFSRRSFIGSAAVVTAGVAGLGAIDAASATQKTNRASTVKGGFDYDVVVVGGGFAGATAARECGLQGYRTLLLEARSRLGGRTFTSRFAGQEIEFGGAWVHWLQPHVWAEMQRYGLGVVEDPLTNLDKTLIMYNDGSVESISPDEFGKNIRIAFEKLCHDAWEVFPRPHEPMFTERARELDKSSVLDRIKTLGLSRLQQAQINSYMALYAGETTDKFGLPGVLKLFACGGWNYDAFMDTETHYRIQGGTIGLINAMLTDSGAEVRMSVPVTAVEQVNGGVKIKTDDDEIITAGVVVMTVPLNTYKHIGFTPALSKGKQRFIKEGQLSKGAKLYVHVKQNLGRVFAFADEQQPLNWVQTHDYSDELGTILSITIARKETIDVNDRDAVTREVQKMFPGVEVLGTAAYDWTADPFSLGAYAAYGVGQLSRLKDLQAAEGRILFAGAETSNGWHAYIDGAVESGLRAGREVKQLLSLEHHHHHH"}}, "key": {"NicA2 [1]": {"biological_target": "T1, NicA2 (Pseudomonas putida, UniProt F8G0P2, N462Y/W427Y)", "T1 construct": "poly-histidine; made in house; host or cells: E. coli BL21 (DE3)", "format": "biochemical, Pseudomonas putida S16", "conditions": "FIG. 17C (N462Y/W427Y mutant), FIG. 10D", "procedure": "(§1) Chronoamperometric responses were recorded overtime, with a potential −0.2 V (versus Ag/AgCl). At the beginning of the experiment, 30 μL 1×DPBS was added to the biosensor, followed by an addition of 30 μL nicotine solution at predefined time point. To evaluate the selectivity of the sensor chronoamperometric responses to nicotine were measured in the presence of the common interferents at relevant physiological concentrations in sweat (see e.g., Table 4). Addition of 30 μL 200 μM nicotine solution to 30 μL mixture was performed at a predefined time point and the current was recorded over time. Similar experiments were performed to evaluate the selectivity of the sensor to cotinine. Current was recorded where 30 μL 200 μM nicotine solution was added to 30 μL cotinine solutions.\n(§2) Chronoamperometric responses were recorded at −0.2 V vs. a Ag/AgCl reference electrode."}, "NicA2 [2]": {"biological_target": "T2, NicA2 (Pseudomonas putida, UniProt F8G0P2)", "T2 construct": "poly-histidine; made in house; host or cells: E. coli BL21 (DE3)", "T2 sequence (F8G0P2 39-482)": "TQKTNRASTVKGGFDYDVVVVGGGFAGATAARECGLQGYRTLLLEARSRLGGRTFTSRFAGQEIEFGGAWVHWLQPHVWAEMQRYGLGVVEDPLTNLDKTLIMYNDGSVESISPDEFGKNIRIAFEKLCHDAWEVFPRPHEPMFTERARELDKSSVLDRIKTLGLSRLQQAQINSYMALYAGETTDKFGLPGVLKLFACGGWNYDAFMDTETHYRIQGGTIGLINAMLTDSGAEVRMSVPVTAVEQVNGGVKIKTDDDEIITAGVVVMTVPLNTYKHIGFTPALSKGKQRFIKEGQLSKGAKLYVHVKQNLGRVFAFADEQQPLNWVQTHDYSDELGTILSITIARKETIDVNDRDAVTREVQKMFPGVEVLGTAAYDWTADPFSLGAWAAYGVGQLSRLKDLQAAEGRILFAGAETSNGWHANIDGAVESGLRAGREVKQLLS", "format": "biochemical, Pseudomonas putida S16", "conditions": "for effect on the response to nicotine: 200 μM nicotine solution added", "procedure": "as §1, §2"}, "[3]": {"assay": "Activity of NicA2 mutants versus wild type NicA2", "format": "biochemical", "conditions": "compared to wild type and other NicA2 mutants", "source_text": "In some embodiments, the size of the working electrode is in the range of 5-8 π mm^2, or 8-10π mm^2, or 10-12π mm^2, or 12-15π mm^2, or greater than 15π mm^2."}}, "note": "Read-outs that look alike come from different tables or passages of the source."}
{"molecule": "CN1C(=O)CC[C@H]1c1cccnc1", "note": "[cotinine]", "values": [{"measurement": "current produced by NicA2 with the analyte", "setting": "NicA2 [1]", "value": "did not produce a current"}, {"measurement": "effect on the response to nicotine", "setting": "NicA2 [2]; chronoamperometry", "value": "minimally affected the nicotine response"}, {"measurement": "effect on the response to nicotine", "setting": "NicA2 [2]; chronoamperometry, listed as Cotinine", "value": "minimal effect upon the nicotine response"}]}
{"molecule": "c1cncc(C2=NCCC2)c1", "note": "[myosmine]", "values": [{"measurement": "reduction of signal", "setting": "NicA2 [2]; added during a chronoamperometric experiment with nicotine", "value": "approximately 50%"}, {"measurement": "response from the substance alone", "setting": "NicA2 [2]; chronoamperometry, no nicotine", "value": "Minimal responses"}]}
{"molecule": "B1", "values": [{"measurement": "oxidation activity of NicA2 mutant", "setting": "[3]", "value": "increased oxidative activity"}]}
